{"source": "ChEMBL document CHEMBL4765275", "about": "“Discovery of novel tertiary amide derivatives as NEDDylation pathway activators to inhibit the tumor progression in vitro and in vivo” (Eur J Med Chem, 2020)", "key": {"MGC-803 [1]": {"tested_on": "MGC-803", "assay": "Cell cycle arrest in human MGC-803 cells assessed as accumulation at G1 phase at 150 nmol/L measured after 48 hrs by propidium iodide staining based flow cytometry (reference value: 40.61%)", "type": "functional"}, "MGC-803 [2]": {"tested_on": "MGC-803", "assay": "Cell cycle arrest in human MGC-803 cells assessed as accumulation at G2 phase at 50 nmol/L measured after 48 hrs by propidium iodide staining based flow cytometry (reference value: 24.91%)", "type": "functional"}, "MGC-803 [3]": {"tested_on": "MGC-803", "assay": "Induction of apoptosis in human MGC-803 cells assessed as late apoptotic cells at 75 nmol/L measured after 48 hrs by Annexin V-FITC/propidium iodide staining based flow cytometry (reference value: 5.6%)", "type": "functional"}, "MGC-803 [4]": {"tested_on": "MGC-803", "assay": "Induction of apoptosis in human MGC-803 cells assessed as upregulation of PIDD expression at 50 to 150 nmol/L measured after 48 hrs by Western blot analysis", "type": "functional, cell-based", "settings": "dose 50-150 nmol/L"}, "MGC-803 [5]": {"tested_on": "MGC-803", "assay": "Induction of apoptosis in human MGC-803 cells assessed as upregulation of Bad expression at 50 to 150 nmol/L measured after 48 hrs by Western blot analysis", "type": "functional, cell-based", "settings": "dose 50-150 nmol/L"}, "MGC-803 [6]": {"tested_on": "MGC-803", "assay": "Induction of apoptosis in human MGC-803 cells assessed as early apoptotic cells at 50 nmol/L measured after 48 hrs by Annexin V-FITC/propidium iodide staining based flow cytometry (reference value: 2.2%)", "type": "functional"}, "MGC-803 [7]": {"tested_on": "MGC-803", "assay": "Antitumor activity against human MGC-803 cells xenografted in mouse assessed as reduction in tumor volume at 100 to 150 mg/kg, sc measured after 28 days by caliper method", "type": "functional, organism-based", "settings": "dose 100-150 mg/kg, time 28.0 day"}, "MGC-803 [8]": {"tested_on": "MGC-803", "assay": "Induction of apoptosis in human MGC-803 cells assessed as upregulation of FADD expression at 50 to 150 nmol/L measured after 48 hrs by Western blot analysis", "type": "functional, cell-based", "settings": "dose 50-150 nmol/L"}, "MGC-803 [9]": {"tested_on": "MGC-803", "assay": "Cell cycle arrest in human MGC-803 cells assessed as accumulation at S phase at 150 nmol/L measured after 48 hrs by propidium iodide staining based flow cytometry (reference value: 34.48%)", "type": "functional"}, "MCF7": {"tested_on": "MCF7", "assay": "Antiproliferative activity against human MCF7 cells measured after 48 hrs by MTT assay", "type": "functional, cell-based", "settings": "MCF7, 48 h"}, "MGC-803 [10]": {"tested_on": "MGC-803", "assay": "Induction of morphological changes in human MGC-803 cells assessed as nuclear condensation at 50 to 150 nmol/L measured after 48 hrs by DAPI staining based assay", "type": "functional, cell-based", "settings": "dose 50-150 nmol/L"}, "MGC-803 [11]": {"tested_on": "MGC-803", "assay": "Induction of apoptosis in human MGC-803 cells assessed as early apoptotic cells at 75 nmol/L measured after 48 hrs by Annexin V-FITC/propidium iodide staining based flow cytometry (reference value: 2.2%)", "type": "functional"}, "MGC-803 [12]": {"tested_on": "MGC-803", "assay": "Induction of morphological changes in human MGC-803 cells assessed as increase in cell debris at 50 to 150 nmol/L measured after 48 hrs by bright field microscopic analysis", "type": "functional, cell-based", "settings": "dose 50-150 nmol/L"}, "MGC-803 [13]": {"tested_on": "MGC-803", "assay": "Induction of apoptosis in human MGC-803 cells assessed as upregulation of Bax expression at 50 to 150 nmol/L measured after 48 hrs by Western blot analysis", "type": "functional, cell-based", "settings": "dose 50-150 nmol/L"}, "MGC-803 [14]": {"tested_on": "MGC-803", "assay": "Induction of apoptosis in human MGC-803 cells assessed as viable cells at 75 nmol/L measured after 48 hrs by Annexin V-FITC/propidium iodide staining based flow cytometry (reference value: 91.7%)", "type": "functional", "settings": "read-out: Activity"}, "PC-3": {"tested_on": "PC-3", "assay": "Antiproliferative activity against human PC-3 cells measured after 48 hrs by MTT assay", "type": "functional, cell-based", "settings": "PC-3, 48 h"}, "MGC-803 [15]": {"tested_on": "MGC-803", "assay": "Induction of apoptosis in human MGC-803 cells assessed as viable cells at 150 nmol/L measured after 48 hrs by Annexin V-FITC/propidium iodide staining based flow cytometry (reference value: 91.7%)", "type": "functional", "settings": "read-out: Activity"}, "MGC-803 [16]": {"tested_on": "MGC-803", "assay": "Induction of apoptosis in human MGC-803 cells assessed as increase in activated caspase-2 expression at 50 to 150 nmol/L measured after 48 hrs by Western blot analysis", "type": "functional, cell-based", "settings": "dose 50-150 nmol/L"}, "MGC-803 [17]": {"tested_on": "MGC-803", "assay": "Induction of apoptosis in human MGC-803 cells assessed as late apoptotic cells at 50 nmol/L measured after 48 hrs by Annexin V-FITC/propidium iodide staining based flow cytometry (reference value: 5.6%)", "type": "functional"}, "MGC-803 [18]": {"tested_on": "MGC-803", "assay": "Antiproliferative activity against human MGC-803 cells measured after 48 hrs by MTT assay", "type": "functional, cell-based"}, "MGC-803 [19]": {"tested_on": "MGC-803", "assay": "Induction of apoptosis in human MGC-803 cells assessed as down regulation of c-IAP1 expression at 150 nmol/L measured after 24 hrs in presence of proteasome inhibitor […] by Western blot analysis", "type": "functional, cell-based"}, "MGC-803 [20]": {"tested_on": "MGC-803", "assay": "Induction of apoptosis in human MGC-803 cells assessed as down regulation of c-IAP1 expression at 150 nmol/L measured after 24 hrs in presence of protein synthesis inhibitor CHX by Western blot analysis", "type": "functional, cell-based"}, "[21]": {"target": "T1, NEDD8-activating enzyme E1 regulatory subunit (Homo sapiens) (UniProt Q13564)", "T1 sequence (whole entry)": "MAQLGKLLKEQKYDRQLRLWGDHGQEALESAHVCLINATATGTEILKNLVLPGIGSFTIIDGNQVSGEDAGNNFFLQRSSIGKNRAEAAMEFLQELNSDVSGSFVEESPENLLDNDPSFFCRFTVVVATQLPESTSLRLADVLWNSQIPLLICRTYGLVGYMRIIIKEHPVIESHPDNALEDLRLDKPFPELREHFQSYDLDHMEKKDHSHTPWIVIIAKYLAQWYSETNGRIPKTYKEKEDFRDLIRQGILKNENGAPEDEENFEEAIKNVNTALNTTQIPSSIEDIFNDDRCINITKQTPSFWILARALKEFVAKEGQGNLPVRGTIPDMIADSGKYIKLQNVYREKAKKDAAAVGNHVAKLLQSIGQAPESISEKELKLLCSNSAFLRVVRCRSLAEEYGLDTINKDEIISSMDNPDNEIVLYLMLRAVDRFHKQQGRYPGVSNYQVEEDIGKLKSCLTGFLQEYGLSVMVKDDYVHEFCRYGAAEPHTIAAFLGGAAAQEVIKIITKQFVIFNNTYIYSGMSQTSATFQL", "assay": "Activation of NAE1-mediated neddylation in human MGC-803 cells assessed as increase in Nedd8-[…] adduct formation at 50 to 150 nmol/L measured after 24 hrs by Western blot analysis", "type": "cell-based", "settings": "filed as activator, dose 50-150 nmol/L"}, "MGC-803 [22]": {"tested_on": "MGC-803", "assay": "Induction of apoptosis in human MGC-803 cells assessed as necrotic cells at 75 nmol/L measured after 48 hrs by Annexin V-FITC/propidium iodide staining based flow cytometry (reference value: 0.5%)", "type": "functional"}, "MGC-803 [23]": {"tested_on": "MGC-803", "assay": "Induction of apoptosis in human MGC-803 cells assessed as down regulation of c-IAP1 expression at 150 nmol/L measured after 24 hrs in presence of NEDDylation inhibitor MLN4924 by Western blot analysis", "type": "functional, cell-based"}, "MGC-803 [24]": {"tested_on": "MGC-803", "assay": "Induction of apoptosis in human MGC-803 cells assessed as increase in cleaved PARP expression at 50 to 150 nmol/L measured after 48 hrs by Western blot analysis", "type": "functional, cell-based", "settings": "dose 50-150 nmol/L"}, "MGC-803 [25]": {"tested_on": "MGC-803", "assay": "Cell cycle arrest in human MGC-803 cells assessed as accumulation at G2 phase at 150 nmol/L measured after 48 hrs by propidium iodide staining based flow cytometry (reference value: 24.91%)", "type": "functional"}, "MGC-803 [26]": {"tested_on": "MGC-803", "assay": "Induction of apoptosis in human MGC-803 cells assessed as late apoptotic cells at 100 nmol/L measured after 48 hrs by Annexin V-FITC/propidium iodide staining based flow cytometry (reference value: 5.6%)", "type": "functional"}}, "note": "The source made the active and inactive calls. No cut-off for these calls is given here.", "data": [{"compound": "COc1ccc(CN(C(=O)Cc2cccs2)c2cc(OC)c(OC)c(OC)c2)cc1", "values": [{"measurement": "Activity", "setting": "MGC-803 [1]", "result": 13.31, "unit": "%"}, {"measurement": "Activity", "setting": "MGC-803 [2]", "result": 35.12, "unit": "%"}, {"measurement": "Activity", "setting": "MGC-803 [3]", "result": 11, "unit": "%"}, {"measurement": "Activity", "setting": "MGC-803 [4]", "result": "Active"}, {"measurement": "Activity", "setting": "MGC-803 [5]", "result": "Active"}, {"measurement": "Activity", "setting": "MGC-803 [6]", "result": 5.2, "unit": "%"}, {"measurement": "Activity", "setting": "MGC-803 [7]", "result": "Active"}, {"measurement": "Activity", "setting": "MGC-803 [8]", "result": "Active"}, {"measurement": "Activity", "setting": "MGC-803 [9]", "result": 16.21, "unit": "%"}, {"measurement": "IC50", "setting": "MCF7", "result": 100, "unit": "nM"}, {"measurement": "Activity", "setting": "MGC-803 [10]", "result": "Active"}, {"measurement": "Activity", "setting": "MGC-803 [11]", "result": 12.6, "unit": "%"}, {"measurement": "Activity", "setting": "MGC-803 [12]", "result": "Active"}, {"measurement": "Activity", "setting": "MGC-803 [13]", "result": "Active"}, {"measurement": "viability at 0.075 µM", "setting": "MGC-803 [14]", "result": 74.4, "unit": "%"}, {"measurement": "IC50", "setting": "PC-3", "result": 1150, "unit": "nM"}, {"measurement": "viability at 0.15 µM", "setting": "MGC-803 [15]", "result": 8.6, "unit": "%"}, {"measurement": "Activity", "setting": "MGC-803 [16]", "result": "Active"}, {"measurement": "Activity", "setting": "MGC-803 [17]", "result": 6.5, "unit": "%"}, {"measurement": "Activity", "setting": "MGC-803 [18]", "result": "Dose-dependent effect"}, {"measurement": "IC50", "setting": "MGC-803 [18]; MGC-803, 48 h", "result": 90, "unit": "nM"}, {"measurement": "Activity", "setting": "MGC-803 [19]", "result": "inactive"}, {"measurement": "Activity", "setting": "MGC-803 [20]", "result": "Active"}, {"measurement": "Activity", "setting": "[21]", "result": "Active"}, {"measurement": "Activity", "setting": "MGC-803 [22]", "result": 2, "unit": "%"}, {"measurement": "Activity", "setting": "MGC-803 [23]", "result": "inactive"}, {"measurement": "Activity", "setting": "MGC-803 [24]", "result": "Active"}, {"measurement": "Activity", "setting": "MGC-803 [25]", "result": 52.97, "unit": "%"}, {"measurement": "Activity", "setting": "MGC-803 [26]", "result": 23.2, "unit": "%"}]}]}
